Where a name gives a salt, the structure may show the parent alone.
tested on: LPS induced IL-6 secretion from whole blood; assay: Measurement of LPS Induced IL-6 Secretion from Whole Blood; type: cell-based; conditions: IL-6 by immunoassay, LPS 200 ng/ml, 24 hours
Description: Activation of monocytic cells by agonists of toll-like receptors such as bacterial lipopolysaccharide (LPS) results in production of key inflammatory mediators including IL-6. Such pathways are widely considered to be central to the pathophysiology of a range of auto-immune and inflammatory disorders.
Compounds to be tested are diluted to give a range of appropriate concentrations of which 1 μl of the diluted stocks is added to a 96 well plate. Following addition of whole blood (130 μl) the plates are incubated at 37 degrees (5% CO2) for 30 min before the addition of 10 μl of 2.8 ug/ml LPS, diluted in complete RPMI 1640 (final concentration=200 ng/ml), to give a total volume of 140 μl per well. After further incubation for 24 hours at 37 degrees, 140 μl of PBS are added to each well. The plates are sealed, shaken for 10 minutes and then centrifuged (2500 rpm×10 min). 100 μl of the supernatant are removed and IL-6 levels assayed by immunoassay (typically by MesoScale Discovery technology) either immediately or following storage at −20 degrees. Concentration response curves for each compound was generated from the data and an IC50 value was calculated.

SMILES | IC50
CC(=O)N1c2ccc(-c3ccc(CCC(=O)NCCO)cc3)cc2[C@H](Nc2ccc(C#N)cn2)C[C@@H]1C [Example 2, 3-(4-((2S,4R)-1-Acetyl-4-((5-cyanopyridin-2-yl)amino)-2-methyl-1,2,3,4-tetrahydroquinolin-6-yl)phenyl)-N-(2-hydroxyethyl)propanamide] | 50.1 to 3160 nM
CC(=O)N1c2ccc(-c3ccc(CC(=O)NCCO)cc3)cc2[C@H](Nc2ccc(C#N)cn2)C[C@@H]1C [Example 3, 2-(4-((2S,4R)-1-Acetyl-4-((5-cyanopyridin-2-yl)amino)-2-methyl-1,2,3,4-tetrahydroquinolin-6-yl)phenyl)-N-(2-hydroxyethyl)acetamide] | 50.1 to 3160 nM
CC(=O)N1c2ccc(-c3ccc(CC(=O)NCCN(C)C)cc3)cc2[C@H](Nc2ccc(C#N)cn2)C[C@@H]1C [Example 5, 2-(4-((2S,4R)-1-Acetyl-4-((5-cyanopyridin-2-yl)amino)-2-methyl-1,2,3,4-tetrahydroquinolin-6-yl)phenyl)-N-(2-(dimethylamino)ethyl)acetamide] | 50.1 to 3160 nM
CC(=O)N1c2ccc(-c3ccc(C(=O)NCCN(C)C)cc3)cc2[C@H](NC(=O)OC(C)C)C[C@@H]1C [Example 7, Isopropyl ((2S,4R)-1-acetyl-6-(4-((2-(dimethylamino)ethyl)carbamoyl)phenyl)-2-methyl-1,2,3,4-tetrahydroquinolin-4-yl)carbamate] | 50.1 to 3160 nM
CC(=O)N1c2ccc(-c3ccc(CC(=O)NCCN)cc3)cc2[C@H](NC(=O)OC(C)C)C[C@@H]1C [Example 9, Isopropyl ((2S,4R)-1-acetyl-6-(4-(2-((2-aminoethyl)amino)-2-oxoethyl)phenyl)-2-methyl-1,2,3,4-tetrahydroquinolin-4-yl)carbamate hydrochloride] | 50.1 to 3160 nM
CC(=O)N1c2ccc(-c3ccc(C(=O)NCCN(C)C)cn3)cc2[C@H](Nc2ccc(C#N)cn2)C[C@@H]1C [Example 10, 6-((2S,4R)-1-acetyl-4-((5-cyanopyridin-2-yl)amino)-2-methyl-1,2,3,4-tetrahydroquinolin-6-yl)-N-(2-(dimethylamino)ethyl)nicotinamide] | 50.1 to 3160 nM
CC(=O)N1c2ccc(-c3ccc(C(=O)NC(CO)CO)cn3)cc2[C@H](Nc2ccc(C#N)cn2)C[C@@H]1C [Example 11, 6-((2S,4R)-1-acetyl-4-((5-cyanopyridin-2-yl)amino)-2-methyl-1,2,3,4-tetrahydroquinolin-6-yl)-N-(1,3-dihydroxypropan-2-yl)nicotinamide] | 50.1 to 3160 nM
CC(=O)N1c2ccc(-c3ccc(C(=O)NCCO)cn3)cc2[C@H](Nc2ccc(C#N)cn2)C[C@@H]1C [Example 12, 6-((2S,4R)-1-acetyl-4-((5-cyanopyridin-2-yl)amino)-2-methyl-1,2,3,4-tetrahydroquinolin-6-yl)-N-(2-hydroxyethyl)nicotinamide] | 50.1 to 3160 nM
CC(=O)N1c2ccc(-c3ccc(C(=O)NCCN(C)C)nc3)cc2[C@H](Nc2ccc(C#N)cn2)C[C@@H]1C [Example 28, 5-((2S,4R)-1-acetyl-4-((5-cyanopyridin-2-yl)amino)-2-methyl-1,2,3,4 tetrahydroquinolin-6-yl)-N-(2-(dimethylamino)ethyl)picolinamide] | 50.1 to 3160 nM
CC(=O)N1c2ccc(-c3ccc(C(=O)NCCO)nc3)cc2[C@H](Nc2ccc(C#N)cn2)C[C@@H]1C [Example 29, 5-((2S,4R)-1-acetyl-4-((5-cyanopyridin-2-yl)amino)-2-methyl-1,2,3,4-tetrahydroquinolin-6-yl)-N-(2-hydroxyethyl)picolinamide] | 50.1 to 3160 nM

Continued, values first:

IC50 | SMILES
50.1 to 3160 nM | CC(=O)N1c2ccc(-c3ccc(C(=O)NCCN)cc3)cc2[C@H](NC(=O)OC(C)C)C[C@@H]1C [Example 6, Isopropyl ((2S,4R)-1-acetyl-6-(4-((2-aminoethyl)carbamoyl)phenyl)-2-methyl-1,2,3,4-tetrahydroquinolin-4-yl)carbamate hydrochloride]
50.1 to 3160 nM | CC(=O)N1c2ccc(-c3ccc(C(=O)NCCO)cc3)cc2[C@H](Nc2ccc(C#N)cn2)C[C@@H]1C [Example 14, 4-((2S,4R)-1-acetyl-4-((5-cyanopyridin-2-yl)amino)-2-methyl-1,2,3,4-tetrahydroquinolin-6-yl)-N-(2-hydroxyethyl)benzamide]
50.1 to 3160 nM | CC(=O)N1c2ccc(-c3ccc(C(=O)NC(CO)CO)cc3)cc2[C@H](Nc2ccc(C#N)cn2)C[C@@H]1C [Example 15, 4-((2S,4R)-1-acetyl-4-((5-cyanopyridin-2-yl)amino)-2-methyl-1,2,3,4-tetrahydroquinolin-6-yl)-N-(1,3-dihydroxypropan-2-yl)benzamide]
50.1 to 3160 nM | CC(=O)N1c2ccc(-c3ccc(C(=O)NCCN(C)C)cc3)cc2[C@H](Nc2ccc(C#N)cn2)C[C@@H]1C [Example 16, 4-((2S,4R)-1-acetyl-4-((5-cyanopyridin-2-yl)amino)-2-methyl-1,2,3,4-tetrahydroquinolin-6-yl)-N-(2-(dimethylamino)ethyl)benzamide dihydrochloride]
50.1 to 3160 nM | CC(=O)N1c2ccc(-c3ccc(C(=O)NCCO)cc3)cc2[C@H](Nc2ccccn2)C[C@@H]1C [Example 19, 4-((2S,4R)-1-acetyl-2-methyl-4-(pyridin-2-ylamino)-1,2,3,4-tetrahydroquinolin-6-yl)-N-(2-hydroxyethyl)benzamide]
50.1 to 3160 nM | CC(=O)N1c2ccc(-c3ccc(C(=O)NCCN(C)C)cc3)cc2[C@H](Nc2ccccn2)C[C@@H]1C [Example 20, 4-((2S,4R)-1-acetyl-2-methyl-4-(pyridin-2-ylamino)-1,2,3,4-tetrahydroquinolin-6-yl)-N-(2-(dimethylamino)ethyl)benzamide]
50.1 to 3160 nM | CC(=O)N1c2ccc(-c3ccc(C(=O)NC(CO)CO)cc3)cc2[C@H](Nc2ccccn2)C[C@@H]1C [Example 21, 4-((2S,4R)-1-acetyl-2-methyl-4-(pyridin-2-ylamino)-1,2,3,4-tetrahydroquinolin-6-yl)-N-(1,3-dihydroxypropan-2-yl)benzamide]
50.1 to 3160 nM | CC(=O)N1c2ccc(-c3ccc(C(=O)NCCN)cc3)cc2[C@H](Nc2ccccn2)C[C@@H]1C [Example 22, 4-((2S,4R)-1-acetyl-2-methyl-4-(pyridin-2-ylamino)-1,2,3,4-tetrahydroquinolin-6-yl)-N-(2-aminoethyl)benzamide]
50.1 to 3160 nM | CC(=O)N1c2ccc(-c3ccc(C(=O)NCCN(C)C)cn3)cc2[C@H](Nc2ccccn2)C[C@@H]1C [Example 23, 6-((2S,4R)-1-acetyl-2-methyl-4-(pyridin-2-ylamino)-1,2,3,4-tetrahydroquinolin-6-yl)-N-(2-(dimethylamino)ethyl)nicotinamide]
50.1 to 3160 nM | CC(=O)N1c2ccc(-c3ccc(C(=O)NCCO)cn3)cc2[C@H](Nc2ccccn2)C[C@@H]1C [Example 24, 6-((2S,4R)-1-acetyl-2-methyl-4-(pyridin-2-ylamino)-1,2,3,4-tetrahydroquinolin-6-yl)-N-(2-hydroxyethyl)nicotinamide]
50.1 to 3160 nM | CC(=O)N1c2ccc(-c3ccc(C(=O)NC(CO)CO)cn3)cc2[C@H](Nc2ccccn2)C[C@@H]1C [Example 25, 6-((2S,4R)-1-acetyl-2-methyl-4-(pyridin-2-ylamino)-1,2,3,4-tetrahydroquinolin-6-yl)-N-(1,3-dihydroxypropan-2-yl)nicotinamide]
